Laboratory results published in patent US20050171005A1, “Methods and compositions for modulating beta-catenin phosphorylation” (priority 2002, published 2005).
Where a SMILES comes first, the peptide text is derived from it. The star is where a group is joined. Cbz = O=C(OCc1ccccc1)*

Assays:
β-catenin [1] = assay: β-catenin degradation in the 293 axin/GSK-3β expression system (Western blot); assay type: cell-based, human; conditions: 293 cells, axin and GSK-3β overexpression, Myc-β-catenin; MG-132 20 μM for 5 hr
Procedure: 293T cells were transiently transfected using the calcium phosphate procedure. The following expression vectors were used: Myc- or Flag-tagged β-catenin (0.5 μg) (a human β-catenin clone obtained from R. Grosschedl), Flag- or Myc-tagged axin (2 μg) (mouse cDNA provided by F. Costantini), HA-GSK3β or Flag-GSK3β (3.5 μg) (a rabbit clone obtained from J R Woodgett) [Woodgett, J. R. (1990) EMBO J 9: 2431-2438]. β-catenin mutants include DP, (S33, S37, T40, S45, S47 substituted to alanine) single point mutants (S29F, S33Y, S37A, T41A, S45F) and 45PKA (T41S, T42R, A43R). […] MG-132 (Sigma) was used at 20 μM for 5 hr; LiCl (40 mM) was added for 6 hr, and CKI-7 (100 μM) for 16 hr prior to harvesting. β-catenin, axin or GSK-30 in cell lysates were detected using anti-Myc (Ab-1, Oncogenes Research Products, 2 μg/ml), anti-Flag (M2, Sigma, 1 μg/ml) and anti-HA (12CA5 ascites fluid; 1:5000) antibodies, respectively. GFP expression was monitored with anti-GFP antibody (JL-8, Clontech, 1 μg/ml). In some experiments (FIG. 4) GSK-3β was detected using anti-GSK-3β monoclonal antibodies (clone 7, Transduction Laboratories, 0.1 μg/ml). Endogenous and exogenous β-catenin (FIGS. 5d and 6a) were detected with anti-β-catenin antibodies (clone 14, Transduction Laboratories) (0.25 μg/ml). […]

endogenous β-catenin = assay: Phosphorylation of endogenous β-catenin in proteasome-inhibited HeLa cells with kinase inhibitors; assay type: cell-based; conditions: H89 5 μM
Procedure: FIG. 5d: Effects of specific kinase inhibitors on the phosphorylation of endogenous β-catenin at S41,45 and S33 in HeLa cells. CKI-7 was used at 100 μM, H89 at 5 μM and LiCl at 40 mM. β-catenin was detected with anti-β-catenin antibody, or anti-phospho-p-catenin antibodies.
(§1) 293T cells were transiently transfected using the calcium phosphate procedure. The following expression vectors were used: Myc- or Flag-tagged β-catenin (0.5 μg) (a human β-catenin clone obtained from R. Grosschedl), Flag- or Myc-tagged axin (2 μg) (mouse cDNA provided by F. Costantini), HA-GSK3β or Flag-GSK3β (3.5 μg) (a rabbit clone obtained from J R Woodgett) [Woodgett, J. R. (1990) EMBO J 9: 2431-2438]. β-catenin mutants include DP, (S33, S37, T40, S45, S47 substituted to alanine) single point mutants (S29F, S33Y, S37A, T41A, S45F) and 45PKA (T41S, T42R, A43R). Additional vectors: Flag-WD, a dominant negative β-TrCP fragment (ΔF-box) [Yaron, A. et al. (1998) Nature 396: 590-594]; Flag-Dvl-1 (a mouse cDNA clone obtained from S-I Yanagawa) [Lee, J. S. et al. (1999) J Biol Chem 274: 21464-21470]; WT and dominant negative Xenopus CKIε (XCKIε-D128N) (provided by T. Shcwarz-Romond) [McKay, R. M. et al. (2001) Dev Biol 235: 378-387]. 24-48 hr after transfection, cells were harvested and processed for the various experiments. MG-132 (Sigma) was used at 20 μM for 5 hr; LiCl (40 mM) was added for 6 hr, and CKI-7 (100 μM) for 16 hr prior to harvesting. β-catenin, axin or GSK-30 in cell lysates were detected using anti-Myc (Ab-1, Oncogenes Research Products, 2 μg/ml), anti-Flag (M2, Sigma, 1 μg/ml) and anti-HA (12CA5 ascites fluid; 1:5000) antibodies, respectively. GFP expression was monitored with anti-GFP antibody (JL-8, Clontech, 1 μg/ml). In some experiments (FIG. 4) GSK-3β was detected using anti-GSK-3β monoclonal antibodies (clone 7, Transduction Laboratories, 0.1 μg/ml). Endogenous and exogenous β-catenin (FIGS. 5d and 6a) were detected with anti-β-catenin antibodies (clone 14, Transduction Laboratories) (0.25 μg/ml).
Western blot and mass spectrometry (MS). Three different commercial anti-β-catenin phospho-peptide antibodies were used: i) Anti-phospho-Thr41/Ser 45 (Cell Signaling Technology), a polyclonal antibody specific for both pT41 and pS45 (otp41,45). ii) Anti-phospho-Ser33/37/Thr41 (Cell Signaling Technology), a polyclonal antibody recognizing pS33 (αp33). […] Antibody specificities were determined by phosphopeptide inhibition studies. […]
In another set of experiments the in vivo role of CKI in S45 phosphorylation was analyzed, using two dominant negative CKIε constructs (dnXCKIε K85R and D128N) [McKay et al. (2001) id ibid.] and a specific CKI inhibitor (CKI-7) [Chijiwa, T. et al. (1989) J Biol Chem 264: 4924-4927]. […]

β-catenin [2] = assay type: cell-based, human; conditions: 293 cells; CKI-7 100 μM for 16 hr; H89 data not shown
Procedure: as §1
Western blot and mass spectrometry (MS). Three different commercial anti-β-catenin phospho-peptide antibodies were used: i) Anti-phospho-Thr41/Ser 45 (Cell Signaling Technology), a polyclonal antibody specific for both pT41 and pS45 (otp41,45). ii) Anti-phospho-Ser33/37/Thr41 (Cell Signaling Technology), a polyclonal antibody recognizing pS33 (αp33). These two polyclonal antibodies were used at a 1:1000 dilution, according to the manufacturer's instructions. iii) anti-phospho-Ser 33/37 (BC-22, Sigma), a monoclonal antibody specific for pS37 (used as ascites fluid at a 1:3000 dilution; αp37). Antibody specificities were determined by phosphopeptide inhibition studies. D^32S(PO4)GIHSGATTTAPS^45 abolished the αp33, but not the αp37 signal; D^32SGIHS(PO4)GATTTAPS^45 blocked the αp37 but not the αp33 signal. […] Proteins for MS analysis were immunopurified by M2 Flag-affinity beads (Sigma), separated by SDS-PAGE, Coomassie stained and the β-catenin bands were in-gel digested with endoproteinase Asp-N. The resulting peptides were desalted on small columns, eluted with 20% MeOH, 5% HCOOH, and analyzed by nanoelectrospray mass spectrometry [Yaron et al. (1998) id ibid.], using a quadrupole time-of-flight mass spectrometer (PE-Sciex, Canada).
GSK-3β is traditionally known to target the phosphorylation of +4P-primed substrates [Frame, S. et al. (2001) Mol Cell 7: 1321-1327], a specificity supported by recent structural studies of the enzyme [Dajani, R. et al (2001) Cell 105: 721-732]. The fact that the S45 phosphorylation site is not preceded by a +4P priming site led to the proposition that the molecular complex of axin and GSK-3β is capable of bypassing the priming requirement of the uncomplexed enzyme [Cohen and Frame (2001) id ibid.]. To assess the contribution of GSK-30 in axin-mediated S45 phosphorylation, two types of experiments were carried out. In the first set, 293 cells were incubated prior to harvesting with LiCl, a GSK-3β inhibitor capable of mimicking a Wnt effect [Klein, P. S. and D. A. Melton (1996) Proc Natl Acad Sci USA 93: 8455-8459; Stambolic, V. et al. (1996) Curr Biol 6: 1664-1668].

phosphatase PP1 = conditions: selective inhibitor of phosphatase PP2A; cited from earlier work
β-catenin [3] = assay: Okadaic acid treatment of HeLa, SW480 and SNU449 cells, Western blot with anti-phospho β-catenin antibodies; assay type: cell-based
Procedure: FIG. 7a: HeLa cells were incubated with MG132 with or without okadaic acid (1 μM for 3 hr). Cell lysates were analyzed by Western blotting with αp45 and αp33.
FIG. 7b: SNU449 cells [Satoh et al. (2000) id ibid.] were treated with okadaic acid (1 μM for 1 or 3 hr), and their lysates tested for S45 phosphorylation by Western blotting,
FIG. 7c: Okadaic Acid induces β-Catenin phosphorylation and degradation in the APC mutated cell line SW480.
Okadaic acid is a selective inhibitor of phosphatase PP2A, while it inhibits to a lower extent (10-50 fold less) phosphatase PP1. Proteasome-inhibited HeLa and SW480 cells (treated with 20 μM MG132) or Ser 37-mutated SNU 449 […] cells [Satoh et al. (2000) id ibid.] were treated with okadaic acid (1 μM) for 1 or 3 hr, harvested and their lysate analyzed by Western blot with anti-phospho β-catenin antibodies: anti-pSer45 and anti-pSer33 (for HeLa and RKO cells only). […] Yet, since S45 phosphorylation precedes the S33 phosphorylation, the okadaic effect may be reserved to S45. This is an example of a compound that can upregulate S45 phosphorylation, while Wnt3A downregulates the same phosphorylation event (FIG. 6a).

β-catenin [4] = assay: Wnt3A conditioned medium stimulation of L, SNU449, HeLa and Jurkat cells, β-catenin level and phosphorylation by Western blot; assay type: cell-based
Procedure: FIG. 6a: Wnt3A inhibits S45 phosphorylation. Mouse L cells, SNU449 hepatoma cells [Satoh et al. (2000) Nat Genet 24(3):245-50], HeLa cells and β-catenin transfected Jurkat T cells were incubated (5 hr) with conditioned medium of wt or Wnt3A secreting L cells [Shibamoto et al. (1998) Genes Cells 3: 659-670]. MG-132 or okadaic acid (OKA, 1 μM) were added to the indicated cultures. Endogenous (HeLa, L cells and SNU449) and exogenous (Jurkat) β-catenin was detected with anti-β-catenin antibody, or anti-phospho-β-catenin antibodies. The numbers under the different lanes are relative densitometry figures, referring to the signal intensity of untreated cultures.
The control of β-catenin stability is a major task of the Wnt pathway and is mediated through members of the conserved protein family dishevelled (Dvl 1,2,3) [Boutros and Mlodzik (1999) id ibid.]. […] To this end, several cell lines were first stimulated with Wnt3A [Roelink, H. and R. Nusse. (1991) Genes Dev 5: 381-388; Shibamoto, S. et al. (1998) id ibid.; Lee et al. (1999) id ibid.], and S45 phosphorylation was monitored by Western blot analysis. Wnt stimulation stabilized endogenous β-catenin in mouse L-cells (fibroblasts) (FIG. 6a, lanes 1,2) and exogenous β-catenin in Jurkat lymphocytes (lanes 5,6). […] (lanes 9-11). S45 phosphorylation of β-catenin was evident in proteasome-inhibited L cells (lane 3), Jurkat cells (lane 7) and HeLa cells (lane 14). It was also apparent in okadaic acid-treated SNU449 cells (OKA, lane 10).

Molecule: CC(C)C[C@@H](C=O)NC(=O)[C@H](CC(C)C)NC(=O)[C@H](CC(C)C)NC(=O)OCc1ccccc1 [MG-132] (Cbz-Leu-Leu-Leu-aldehyde)
- β-catenin degradation (β-catenin [1]): blocked

Molecule: O=S(=O)(NCCNC/C=C/c1ccc(Br)cc1)c1cccc2cnccc12 [H89]
- wt β-catenin phosphorylation (endogenous β-catenin): no effect
- constitutive S45 phosphorylation of 45PKA β-catenin (β-catenin [2]): inhibited

Molecule: C=C1[C@@H](O)[C@@H]2O[C@]3(CC[C@H](/C=C/[C@@H](C)[C@@H]4CC(C)=C[C@@]5(O[C@H](C[C@@](C)(O)C(=O)O)CC[C@H]5O)O4)O3)CC[C@H]2O[C@@H]1[C@@H](O)C[C@H](C)[C@H]1O[C@@]2(CCCCO2)CC[C@H]1C [okadaic acid]
- inhibition of phosphatase PP1 relative to PP2A (phosphatase PP1): 10-50 fold less
- β-Catenin phosphorylation and degradation (β-catenin [3]; APC mutated cell line SW480): induces
- phosphorylation signal with anti-pSer45 (β-catenin [3]; MG132-treated HeLa and SW480 cells or SNU 449 cells, okadaic acid 1 μM for 1 or 3 hr): induces a massive phosphorylation signal
- S45 phosphorylation of β-catenin (β-catenin [3]; SNU449 cells, okadaic acid 1 μM): apparent
- phosphorylation signal with anti-pSer33 (β-catenin [3]; okadaic acid 1 μM for 1 or 3 hr, for HeLa and RKO cells only (so in the source)): induces a massive phosphorylation signal

Molecule: Wnt3A
- S33/37 phosphorylation (β-catenin [4]; Jurkat, HeLa and L cells): inhibition
- levels of S37 mutated β-catenin (β-catenin [4]; SNU449 hepatoma cell line, conditioned medium 5 hr): did not affect
- S45 phosphorylation (β-catenin [4]; all four cell lines (L, Jurkat, SNU449, HeLa), MG-132 or okadaic acid treated): inhibition
- β-catenin level (stabilization) (β-catenin [4]; endogenous β-catenin in mouse L-cells, exogenous β-catenin in Jurkat lymphocytes, conditioned medium 5 hr): stabilized
